Laboratory results from US9920053B2, “N-(hetero)aryl-substituted heteroyclic derivatives useful for the treatment of diseases or conditions related to the central nervous system” (CHRONOS THERAPEUTICS LIMITED, priority 2014, dated 2018).

Legend:
[1] = target: human serotonin transporter (SERT) (Homo sapiens (Human), UniProt P31645); experiment: Scintillation Proximity Assay (SPA) for human SERT binding ([3H]citalopram); settings: recombinant human SERT, CHO membranes
From the text: (§1) Affinity is expressed in terms of inhibition constant (Ki) of the compounds of the invention for DAT, NET and SERT, and it is typically calculated from the IC50 values obtained in competition experiments using Cheng and Prusoff equation (Cheng and Prusoff, Biochem. Pharmacol. 22:3099, 1973). In the context of the present invention pKi values (corresponding to the antilogarithm of Ki) are used instead of Ki; pKi are only estimated to be accurate to about 0.3 log unit.
(§2) Chinese Hamster Ovary (CHO) cells stably expressing either human DAT (hDAT-CHO) or human NET (hNET-CHO) or human SERT (hSERT-CHO) are used for the membrane preparations for radioligand binding assays using Scintillation proximity Assay (SPA) technique. Each cell line is cultured independently in F-12K Nutrient Mixture containing 10% of Fetal Bovine Serum (FBS) supplemented with 450 μg/ml G-418. When cells are at 70-80% of confluence 3 mM Na Butyrate was added to the cell culture medium. After 24 h of incubation, the culture medium was removed and the cells detached with Versene (DAT) or by scraping (NET and SERT). Cell suspension is centrifuged at 41,000 g for 10 minutes at 4° C. The resultant pellets are re-suspended in 15 volumes of Ice-cold buffer (20 mM HEPES, 145 mM NaCl, 5 mM KCl, pH7.3), homogenized using an Ultra Turrax homogeniser and centrifuged as before. The resultant membrane pellets are re-suspended in up to 15 volume of ice-cold buffer, incubated for 20 minutes at 37° C and centrifuged as before at 41,000 g. The final membrane pellets are re-suspended into 5-10 volumes of ice-cold buffer, dispensed into 0.5 ml aliquots and stored at −80° C. until use. Protein concentration for each preparation is determined using Bio-Rad Protein Assay Kit.
(§3) The affinity of the compounds of the invention to the human DAT or NET or SERT transporters is assessed by using the [^3H]WIN-35,428 or [^3H]nisoxetine or [^3H]citalopram binding assays in recombinant human DAT, NET and SERT membranes with the SPA technology. The final assay volume is 50 μL in 384 well plates.
(§4) Briefly, 0.5 μL of test compound in neat DMSO or 0.5 μL of DMSO for total binding (TB) or 0.5 μL of indatraline 1 mM (10 μM final concentration) for non specific binding (NSB) are added to the assay plate. 50 μL of the SPA mixture is added to each well, containing: 30 μg/mL or 10 μg/mL or 25 μg/mL DAT, NET, SERT membranes, respectively; 5 nM [^3H]WIN-35,428 or 5 nM [^3H]nisoxetine or 1 nM [^3H]citalopram, for DAT, NET, SERT assay, respectively; 2.5 mg/mL or 1 mg/mL or 4 mg/mL WGA-PVT SPA beads (PerkinElmer RPNQ0001, for DAT, NET, SERT assay, respectively. All components are added to Assay Buffer (20 mM HEPES pH 7.4, 145 mM NaCl, 5 mM KCl, 0.01% Pluronic F-127). 0.02% BSA was used for DAT binding only. Plates are sealed with Topseal A and centrifuged 1 min, 800 rpm. Plates are loaded into a 1450 Microbeta TriLux (Perkin-Elmer) plate reader and the radioactivity counted after at least 4 hrs or overnight incubation at room temperature. Curve fitting and IC50 estimations are performed using a four parameter model in XLfit (IDBS, Guilford, UK) for Microdoft Excel (Microsoft, Redmond, Wash.).

[2] = target: human norepinephrine transporter (NET) (Homo sapiens (Human), UniProt P23975); experiment: Scintillation Proximity Assay (SPA) for human NET binding ([3H]nisoxetine); settings: recombinant human NET, CHO membranes
human norepinephrine transporter (NET), sequence (P23975 whole entry): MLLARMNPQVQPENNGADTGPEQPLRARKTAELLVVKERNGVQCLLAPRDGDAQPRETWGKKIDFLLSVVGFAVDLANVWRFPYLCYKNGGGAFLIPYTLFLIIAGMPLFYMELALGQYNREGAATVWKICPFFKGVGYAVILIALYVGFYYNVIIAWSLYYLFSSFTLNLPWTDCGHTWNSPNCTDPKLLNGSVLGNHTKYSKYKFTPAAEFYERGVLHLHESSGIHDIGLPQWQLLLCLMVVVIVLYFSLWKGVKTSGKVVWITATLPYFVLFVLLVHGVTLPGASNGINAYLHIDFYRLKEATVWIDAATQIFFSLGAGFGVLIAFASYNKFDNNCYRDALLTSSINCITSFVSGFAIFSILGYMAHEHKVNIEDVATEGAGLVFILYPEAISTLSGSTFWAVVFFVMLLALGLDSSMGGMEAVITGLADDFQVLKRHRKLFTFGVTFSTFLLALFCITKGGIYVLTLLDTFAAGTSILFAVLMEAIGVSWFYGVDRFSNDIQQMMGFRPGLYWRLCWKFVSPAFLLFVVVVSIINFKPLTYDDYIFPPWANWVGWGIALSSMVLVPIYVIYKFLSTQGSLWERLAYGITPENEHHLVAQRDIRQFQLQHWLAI
From the text: as §1, §2, §3, §4

[3] = target: human ERG potassium channel (hERG) (Homo sapiens (Human), UniProt Q12809); experiment: hERG channel tail current recording using Rapid ICE automated patch-clamp; type: cell-based; settings: HEK293 cells stably transfected with hERG
human ERG potassium channel (hERG), sequence (Q12809 whole entry): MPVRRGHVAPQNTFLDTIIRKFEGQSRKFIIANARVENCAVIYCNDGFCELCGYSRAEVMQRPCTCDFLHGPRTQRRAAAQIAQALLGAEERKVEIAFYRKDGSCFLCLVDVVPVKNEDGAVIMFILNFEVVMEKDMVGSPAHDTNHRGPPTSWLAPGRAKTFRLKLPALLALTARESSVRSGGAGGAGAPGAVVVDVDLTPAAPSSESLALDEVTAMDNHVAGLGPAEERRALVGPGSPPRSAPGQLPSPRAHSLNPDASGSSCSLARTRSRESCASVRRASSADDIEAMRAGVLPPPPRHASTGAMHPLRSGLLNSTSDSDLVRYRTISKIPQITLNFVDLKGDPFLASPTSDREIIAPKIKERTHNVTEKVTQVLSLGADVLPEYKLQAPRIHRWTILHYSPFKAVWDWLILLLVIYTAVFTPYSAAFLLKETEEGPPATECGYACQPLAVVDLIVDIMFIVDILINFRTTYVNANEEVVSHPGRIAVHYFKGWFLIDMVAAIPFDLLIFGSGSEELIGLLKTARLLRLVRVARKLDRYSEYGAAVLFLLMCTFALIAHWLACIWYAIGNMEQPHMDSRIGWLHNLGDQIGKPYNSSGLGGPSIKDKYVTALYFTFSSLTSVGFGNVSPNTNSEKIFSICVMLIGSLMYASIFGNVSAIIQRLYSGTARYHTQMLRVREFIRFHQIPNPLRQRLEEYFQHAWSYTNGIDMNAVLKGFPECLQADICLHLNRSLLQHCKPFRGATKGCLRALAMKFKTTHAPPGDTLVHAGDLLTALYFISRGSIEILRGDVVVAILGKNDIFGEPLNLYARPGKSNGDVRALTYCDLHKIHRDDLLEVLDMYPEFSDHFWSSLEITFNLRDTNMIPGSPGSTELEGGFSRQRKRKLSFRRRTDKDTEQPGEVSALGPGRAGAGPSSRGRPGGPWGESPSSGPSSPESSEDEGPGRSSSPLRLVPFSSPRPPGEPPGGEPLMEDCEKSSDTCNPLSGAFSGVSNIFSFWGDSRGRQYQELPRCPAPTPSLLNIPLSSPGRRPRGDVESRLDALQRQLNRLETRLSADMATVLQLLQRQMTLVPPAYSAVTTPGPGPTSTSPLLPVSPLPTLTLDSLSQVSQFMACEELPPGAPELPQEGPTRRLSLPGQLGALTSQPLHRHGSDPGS
Experimental: The potency of the compounds of the invention in inhibiting human ERG potassium channel (hERG) tail current is assessed in a recombinant HEK293 cell line stably transfected with hERG cDNA using Rapid ICE™ (Rapid Ion Channel Electrophysiology) assay. Rapid ICE™ is an automated patch-clamp assay utilizing the PatchXpress 7000A system (Molecular Devices Corporation) or the QPatch HTX system (Sophion Bioscience A/S).
Briefly cells are cultivated for 24 to 72 hours before recordings in minimum essential medium supplemented with 10% FBS, 1% non-essential amino acids, 1% sodium pyruvate, 2 mM L-glutamine. The day of the experiment cells are detached with TrypLE and prepared to be loaded on the instrument. For PatchXpress cells are finally resuspended in 150 μl of Extracellular Buffer whereas for QPatch cells are resuspended in 7 ml Serum-Free Media containing 25 mM Hepes and Soybean trypsin inhibitor and immediately placed in the cell storage tank of the machine. The composition of the Extracellular Buffer is (mM): NaCl 137; KCl 4; CaCl2 1.8; MgCl2 1.0; D-glucose 10; N 2 hydroxyethylpiperazine-N′-2-ethanesulfonic acid (HEPES) 10; pH 7.4 with 1 M NaOH. The composition of the pipette solution is (mM): KCl 130; MgCl2 1.0; Ethylene glycol-bis(β-aminoethyl ether)-N,N,N′,N′-tetraacetic acid (EGTA) 5; MgATP 5; HEPES 10; pH 7.2 with 1 M KOH. The voltage protocol includes the following steps: step from −80 mV to −50 mV for 200 ms, +20 mV for 4.8 s, step to −50 mV for 5 s then step to the holding potential of −80 mV. Compounds of the invention are dissolved in DMSO and diluted in Extracellular Buffer to achieve final test concentrations (0.1, 1 and 10 μM) in 0.1% DMSO. The voltage protocol is run and recorded continuously during the experiment. The vehicle, corresponding to 0.1% DMSO in Extracellular Buffer, is then applied for 3 min followed by the test substance in triplicate. The standard combined exposure time is 5 min. The average of tail current amplitude values recorded from 4 sequential voltage pulses is used to calculate for each cell the effect of the test substance by calculating the residual current (% control) compared with vehicle pre-treatment. Data are reported as % inhibition for each concentration tested and IC50 values are estimated using DataXpress or QPatch software. At least two cells are tested, more if results diverge.

[4] = target: human dopamine transporter (DAT) (Homo sapiens (Human), UniProt Q01959); experiment: Scintillation Proximity Assay (SPA) for human DAT binding ([3H]WIN-35,428); settings: recombinant human DAT, CHO
human dopamine transporter (DAT), sequence (Q01959 whole entry): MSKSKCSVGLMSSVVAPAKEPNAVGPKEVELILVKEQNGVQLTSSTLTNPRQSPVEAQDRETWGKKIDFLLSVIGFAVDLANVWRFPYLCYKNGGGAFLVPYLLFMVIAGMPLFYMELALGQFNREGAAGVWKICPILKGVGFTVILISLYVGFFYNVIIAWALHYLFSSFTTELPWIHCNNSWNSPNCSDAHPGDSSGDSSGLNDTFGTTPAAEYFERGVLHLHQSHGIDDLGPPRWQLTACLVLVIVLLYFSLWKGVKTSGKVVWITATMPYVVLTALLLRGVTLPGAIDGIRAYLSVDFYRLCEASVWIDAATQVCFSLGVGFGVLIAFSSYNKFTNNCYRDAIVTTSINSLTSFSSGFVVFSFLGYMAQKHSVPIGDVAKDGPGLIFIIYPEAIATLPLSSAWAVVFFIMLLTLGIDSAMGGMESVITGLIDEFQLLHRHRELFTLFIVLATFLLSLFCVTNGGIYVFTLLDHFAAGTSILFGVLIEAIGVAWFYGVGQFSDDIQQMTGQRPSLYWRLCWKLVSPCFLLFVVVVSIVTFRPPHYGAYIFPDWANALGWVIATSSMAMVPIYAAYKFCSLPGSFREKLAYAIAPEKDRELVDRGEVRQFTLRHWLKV
From the text: as §1, §2, §3, §4
The potency of the compounds of the invention in blocking the DAT function is measured using an uptake assay in a recombinant CHO cell line expressing human DAT (hDAT-CHO). Potency is measured in terms of pIC50 by testing the compounds of invention for the inhibition of [^3H]-dopamine uptake in DAT-CHO cells using a SPA technology in 384 well format.
Briefly, on the days of the experiment hDAT-CHO cells are detached using Versene and added (75,000 cells/mL) to the SPA Mixture, which contains the following components in Assay Buffer (20 mM HEPES, 145 mM NaCl, 5 mM KCl, 2 mM CaCl2, 1 mM MgCl2 and 1 g/L glucose, pH 7.3): 0.02% w/v of Pluronic F127, 2 mg/mL SPA Imaging beads (RPNQ0260, PerkinElmer), 10 μM pargyline and 80 nM of [^3H]-dopamine. […]

human serotonin transporter (SERT), sequence (P31645 whole entry): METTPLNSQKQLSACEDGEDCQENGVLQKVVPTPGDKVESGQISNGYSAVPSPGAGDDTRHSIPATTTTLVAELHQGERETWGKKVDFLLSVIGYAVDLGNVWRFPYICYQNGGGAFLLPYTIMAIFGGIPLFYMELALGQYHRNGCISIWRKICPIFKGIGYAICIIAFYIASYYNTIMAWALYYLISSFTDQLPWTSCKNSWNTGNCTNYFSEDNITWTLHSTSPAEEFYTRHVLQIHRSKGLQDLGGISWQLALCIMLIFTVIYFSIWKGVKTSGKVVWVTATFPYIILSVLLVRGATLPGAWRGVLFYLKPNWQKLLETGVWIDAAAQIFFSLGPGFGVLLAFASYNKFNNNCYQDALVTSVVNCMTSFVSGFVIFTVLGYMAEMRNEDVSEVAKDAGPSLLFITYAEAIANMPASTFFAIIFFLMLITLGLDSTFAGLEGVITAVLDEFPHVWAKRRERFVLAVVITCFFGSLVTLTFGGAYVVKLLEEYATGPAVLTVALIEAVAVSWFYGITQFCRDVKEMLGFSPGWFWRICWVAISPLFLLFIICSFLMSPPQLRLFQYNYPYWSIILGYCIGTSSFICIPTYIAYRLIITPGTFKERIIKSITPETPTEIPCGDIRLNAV

| Compound | IC50 [1] [µM] | pIC50 NET [2] | IC50 [3] [µM] | pIC50 DAT [4] | IC50 [2] [µM] | pIC50 hERG [3] | pIC50 SERT [1] |
| --- | --- | --- | --- | --- | --- | --- | --- |
| CC(C)C(=O)NCC1(O)CCN(c2nc(Oc3cccc(F)c3)cc(C(F)(F)F)n2)CC1 [Example 21, N-({1-[4-(3-fluorophenoxy)-6-(trifluoromethyl)pyrimidin-2-yl]-4-hydroxypiperidin-4-yl}methyl)-2-methylpropanamide] | > 100 | 4.75 | > 10 | 7.84 | – | – | – |
| O=C(NCC1(O)CCN(c2nc(Oc3cccc(F)c3)cc(C(F)(F)F)n2)CC1)C1CNC1 [Example 25, N-({1-[4-(3-fluorophenoxy)-6-(trifluoromethyl)pyrimidin-2-yl]-4-hydroxypiperidin-4-yl}methyl)azetidine-3-carboxamide] | 35.5 | 5.70 | > 10 | 8.30 | – | – | – |
| O=C(NCC1(O)CCN(c2nc(Oc3cccc(F)c3)cc(C(F)(F)F)n2)CC1)c1ccccc1 [Example 26, N-({1-[4-(3-fluorophenoxy)-6-(trifluoromethyl)pyrimidin-2-yl]-4-hydroxypiperidin-4-yl}methyl)benzamide] | > 100 | – | – | 7.65 | > 100 | 5.5 | – |
| O=C(NCC1(O)CCN(c2nc(Oc3cccc(F)c3)cc(C(F)(F)F)n2)CC1)c1cn[nH]c1 [Example 27, N-({1-[4-(3-fluorophenoxy)-6-(trifluoromethyl)pyrimidin-2-yl]-4-hydroxypiperidin-4-yl}methyl)-1H-pyrazole-4-carboxamide] | 34.7 | 5.65 | – | 7.72 | – | 5.3 | – |
| O=C(NCC1(O)CCN(c2nc(Oc3cccc(F)c3)cc(C(F)(F)F)n2)CC1)c1cnccn1 [Example 28, N-({1-[4-(3-fluorophenoxy)-6-(trifluoromethyl)pyrimidin-2-yl]-4-hydroxypiperidin-4-yl}methyl)pyrazine-2-carboxamide] | > 100 | 5.96 | – | 7.86 | – | 5.5 | – |
| NCC(=O)NCC1(O)CCN(c2nc(Oc3cccc(F)c3)cc(C(F)(F)F)n2)CC1 [Example 29, 2-amino-N-({1-[4-(3-fluorophenoxy)-6-(trifluoromethyl)pyrimidin-2-yl]-4-hydroxypiperidin-4-yl}methyl)acetamide] | 19.1 | 5.77 | – | 8.22 | – | 5.4 | – |
| NCC1(O)CCN(c2nc(Oc3cccc(F)c3)cc(C(F)(F)F)n2)C1 (stereo not shown) [Example 33, 3-(aminomethyl)-1-[4-(3-fluorophenoxy)-6-(trifluoromethyl)pyrimidin-2-yl]pyrrolidin-3-ol] | 19.1 | 6.52 | – | 8.86 | – | 5.8 | – |
| Fc1cccc(Oc2cc(C(F)(F)F)nc(N3CCc4nc[nH]c4C3)n2)c1 [Example 36, 4-(3-fluorophenoxy)-2-{3H,4H,5H,6H,7H-imidazo[4,5-c]pyridin-5-yl}-6-(trifluoromethyl)pyrimidine] | > 100 | 6.01 | – | 7.90 | – | 5.6 | – |
| Cl.Fc1cccc(Oc2cc(C(F)(F)F)nc(N3CCC4NCCCC4C3)n2)c1 (stereo not shown) [Example 39, 6-[4-(3-fluorophenoxy)-6-(trifluoromethyl)pyrimidin-2-yl]-decahydro-1,6-naphthyridine hydrochloride] | 3.02 | 7.51 | – | 8.90 | – | 6.2 | – |
| (3S or 3R)-3-[(cyclopropylamino)methyl]-1-[4-(3-fluorophenoxy)-6-(trifluoromethyl)pyrimidin-2-yl]pyrrolidin-3-ol [Example 31] | – | 6.86 | – | 8.75 | – | 5.7 | 4.46 |
